Tests used:
[1] = molecular target: Serine/threonine-protein kinase PLK3 (Homo sapiens) (UniProt Q9H4B4); details: Compound concentration 1000.0 nM
[2] = molecular target: Cyclin-dependent kinase 15 (Homo sapiens) (UniProt Q96Q40); details: Compound concentration 1000.0 nM
[3] = molecular target: Ephrin type-B receptor 3 (Homo sapiens) (UniProt P54753); details: Compound concentration 1000.0 nM
[4] = molecular target: Serine/threonine-protein kinase Chk1 (Homo sapiens) (UniProt O14757); details: Compound concentration 1000.0 nM
[5] = molecular target: Serine/threonine-protein kinase OSR1 (Homo sapiens) (UniProt O95747); details: Compound concentration 1000.0 nM
[6] = molecular target: Tyrosine-protein kinase receptor TYRO3 (Homo sapiens) (UniProt Q06418); details: Compound concentration 1000.0 nM
[7] = molecular target: 5'-AMP-activated protein kinase catalytic subunit alpha-2 (Homo sapiens) (UniProt P54646); details: Compound concentration 1000.0 nM
[8] = molecular target: Serine/threonine-protein kinase PknB (Mycobacterium tuberculosis) (UniProt P9WI81); details: Compound concentration 1000.0 nM
[9] = molecular target: TGF-beta receptor type-1 (Homo sapiens) (UniProt P36897); details: Compound concentration 1000.0 nM
[10] = molecular target: Tyrosine-protein kinase JAK2 (Homo sapiens) (UniProt O60674); details: Compound concentration 1000.0 nM
[11] = molecular target: Serine/threonine-protein kinase tousled-like 2 (Homo sapiens) (UniProt Q86UE8); details: Compound concentration 1000.0 nM
[12] = molecular target: Mitogen-activated protein kinase 6 (Homo sapiens) (UniProt Q16659); details: Compound concentration 1000.0 nM
[13] = molecular target: Tyrosine-protein kinase ABL2 (Homo sapiens) (UniProt P42684); details: Compound concentration 1000.0 nM
[14] = molecular target: Vascular endothelial growth factor receptor 2 (Homo sapiens) (UniProt P35968); details: Compound concentration 1000.0 nM
[15] = molecular target: Serine/threonine-protein kinase RIO2 (Homo sapiens) (UniProt Q9BVS4); details: Compound concentration 1000.0 nM
[16] = molecular target: SNF-related serine/threonine-protein kinase (Homo sapiens) (UniProt Q9NRH2); details: Compound concentration 1000.0 nM
[17] = molecular target: Cyclin-dependent kinase 13 (Homo sapiens) (UniProt Q14004); details: Compound concentration 1000.0 nM
[18] = molecular target: Macrophage colony-stimulating factor 1 receptor (Homo sapiens) (UniProt P07333); details: Compound concentration 1000.0 nM
[19] = molecular target: Phosphatidylinositol 3-kinase catalytic subunit type 3 (Homo sapiens) (UniProt Q8NEB9); details: Compound concentration 1000.0 nM
[20] = molecular target: Serine/threonine-protein kinase PLK1 (Homo sapiens) (UniProt P53350); details: Compound concentration 1000.0 nM
[21] = molecular target: Sigma non-opioid intracellular receptor 1 (Homo sapiens) (UniProt Q99720); details: Compound concentration 10.0 uM
[22] = molecular target: Serine/threonine-protein kinase Nek5 (Homo sapiens) (UniProt Q6P3R8); details: Compound concentration 1000.0 nM
[23] = molecular target: Serine/threonine-protein kinase BRSK1 (Homo sapiens) (UniProt Q8TDC3); details: Compound concentration 1000.0 nM
[24] = molecular target: Discoidin domain-containing receptor 2 (Homo sapiens) (UniProt Q16832); details: Compound concentration 1000.0 nM
[25] = molecular target: Serine/threonine-protein kinase STK11 (Homo sapiens) (UniProt Q15831); details: Compound concentration 1000.0 nM
[26] = molecular target: Receptor tyrosine-protein kinase erbB-3 (Homo sapiens) (UniProt P21860); details: Compound concentration 1000.0 nM
[27] = molecular target: Leukocyte tyrosine kinase receptor (Homo sapiens) (UniProt P29376); details: Compound concentration 1000.0 nM
[28] = tested on: Proto-oncogene tyrosine-protein kinase receptor Ret (Homo sapiens), P07949 [M918T]; details: Compound concentration 1000.0 nM
[29] = molecular target: Serine/threonine-protein kinase PAK 2 (Homo sapiens) (UniProt Q13177); details: Compound concentration 1000.0 nM
[30] = molecular target: Cyclin-dependent kinase 11B (Homo sapiens) (UniProt P21127); details: Compound concentration 1000.0 nM
[31] = molecular target: Sodium-dependent serotonin transporter (Homo sapiens) (UniProt P31645); details: Compound concentration 10.0 uM
[32] = molecular target: Tyrosine-protein kinase Mer (Homo sapiens) (UniProt Q12866); details: Compound concentration 1000.0 nM
[33] = molecular target: Ephrin type-A receptor 2 (Homo sapiens) (UniProt P29317); details: Compound concentration 1000.0 nM
[34] = molecular target: D(3) dopamine receptor (Homo sapiens) (UniProt P35462); details: Compound concentration 10.0 uM
[35] = molecular target: 1-phosphatidylinositol 3-phosphate 5-kinase (Homo sapiens) (UniProt Q9Y2I7); details: Compound concentration 1000.0 nM
[36] = molecular target: Mitogen-activated protein kinase kinase kinase kinase 4 (Homo sapiens) (UniProt O95819); details: Compound concentration 1000.0 nM
[37] = molecular target: Casein kinase II subunit alpha (Homo sapiens) (UniProt P68400); details: Compound concentration 1000.0 nM
[38] = molecular target: Dual specificity protein kinase CLK2 (Homo sapiens) (UniProt P49760); details: Compound concentration 1000.0 nM
[39] = molecular target: Phosphatidylinositol 4-phosphate 3-kinase C2 domain-containing subunit beta (Homo sapiens) (UniProt O00750); details: Compound concentration 1000.0 nM
[40] = tested on: Phosphatidylinositol 4,5-bisphosphate 3-kinase catalytic subunit alpha isoform (Homo sapiens), P42336 [E545A]; details: Compound concentration 1000.0 nM
[41] = molecular target: Activin receptor type-2B (Homo sapiens) (UniProt Q13705); details: Compound concentration 1000.0 nM
[42] = molecular target: Myosin light chain kinase, smooth muscle (Homo sapiens) (UniProt Q15746); details: Compound concentration 1000.0 nM
[43] = molecular target: Fibroblast growth factor receptor 3 (Homo sapiens) (UniProt P22607); details: Compound concentration 1000.0 nM
[44] = molecular target: Ribosomal protein S6 kinase alpha-6 (Homo sapiens) (UniProt Q9UK32); details: Compound concentration 1000.0 nM
[45] = molecular target: Tyrosine-protein kinase FRK (Homo sapiens) (UniProt P42685); details: Compound concentration 1000.0 nM

Sequence of Fibroblast growth factor receptor 3 (Homo sapiens) (P22607 23-806 limits assumed): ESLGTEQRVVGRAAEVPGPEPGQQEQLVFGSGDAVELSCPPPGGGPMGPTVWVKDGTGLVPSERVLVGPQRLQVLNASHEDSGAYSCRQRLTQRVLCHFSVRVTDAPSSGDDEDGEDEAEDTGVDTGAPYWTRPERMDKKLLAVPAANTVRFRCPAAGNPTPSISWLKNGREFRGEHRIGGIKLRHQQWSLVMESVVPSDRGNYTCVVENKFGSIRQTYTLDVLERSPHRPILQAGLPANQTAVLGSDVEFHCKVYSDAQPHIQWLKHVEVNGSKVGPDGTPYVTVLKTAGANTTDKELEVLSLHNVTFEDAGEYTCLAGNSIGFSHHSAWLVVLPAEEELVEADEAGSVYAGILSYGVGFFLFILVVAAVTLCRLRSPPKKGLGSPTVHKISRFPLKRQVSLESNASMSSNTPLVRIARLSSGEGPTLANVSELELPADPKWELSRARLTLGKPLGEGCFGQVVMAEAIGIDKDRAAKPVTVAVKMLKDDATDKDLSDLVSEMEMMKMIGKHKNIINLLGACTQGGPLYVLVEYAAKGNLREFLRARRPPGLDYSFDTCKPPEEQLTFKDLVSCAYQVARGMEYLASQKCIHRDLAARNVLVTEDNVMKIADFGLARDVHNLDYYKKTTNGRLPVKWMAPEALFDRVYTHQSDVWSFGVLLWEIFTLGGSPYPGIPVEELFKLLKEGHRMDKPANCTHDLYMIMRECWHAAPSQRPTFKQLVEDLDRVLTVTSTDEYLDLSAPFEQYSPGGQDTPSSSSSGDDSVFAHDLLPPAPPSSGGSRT
Sequence of Cyclin-dependent kinase 11B (Homo sapiens) (P21127 whole entry): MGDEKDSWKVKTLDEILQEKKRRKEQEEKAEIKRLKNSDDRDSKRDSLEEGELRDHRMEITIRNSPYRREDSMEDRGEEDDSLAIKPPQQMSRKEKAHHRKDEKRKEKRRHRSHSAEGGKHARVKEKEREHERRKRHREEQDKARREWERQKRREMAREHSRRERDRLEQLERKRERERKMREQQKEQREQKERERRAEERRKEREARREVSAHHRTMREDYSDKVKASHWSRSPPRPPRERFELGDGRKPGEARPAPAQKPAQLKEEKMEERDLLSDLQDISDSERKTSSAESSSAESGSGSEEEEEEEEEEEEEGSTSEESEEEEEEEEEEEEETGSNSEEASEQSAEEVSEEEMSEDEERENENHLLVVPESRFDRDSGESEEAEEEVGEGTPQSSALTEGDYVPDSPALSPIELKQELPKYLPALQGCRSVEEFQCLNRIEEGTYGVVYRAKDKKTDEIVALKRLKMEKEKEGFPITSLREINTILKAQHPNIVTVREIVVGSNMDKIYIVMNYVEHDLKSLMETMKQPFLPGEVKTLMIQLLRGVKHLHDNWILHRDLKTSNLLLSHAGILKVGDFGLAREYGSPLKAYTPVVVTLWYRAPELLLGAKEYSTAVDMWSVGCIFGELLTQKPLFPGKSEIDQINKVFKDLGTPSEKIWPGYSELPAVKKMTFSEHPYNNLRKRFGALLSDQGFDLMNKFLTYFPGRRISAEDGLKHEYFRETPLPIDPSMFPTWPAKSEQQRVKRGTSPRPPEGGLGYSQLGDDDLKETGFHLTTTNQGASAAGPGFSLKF
Sequence of Cyclin-dependent kinase 15 (Homo sapiens) (Q96Q40 whole entry): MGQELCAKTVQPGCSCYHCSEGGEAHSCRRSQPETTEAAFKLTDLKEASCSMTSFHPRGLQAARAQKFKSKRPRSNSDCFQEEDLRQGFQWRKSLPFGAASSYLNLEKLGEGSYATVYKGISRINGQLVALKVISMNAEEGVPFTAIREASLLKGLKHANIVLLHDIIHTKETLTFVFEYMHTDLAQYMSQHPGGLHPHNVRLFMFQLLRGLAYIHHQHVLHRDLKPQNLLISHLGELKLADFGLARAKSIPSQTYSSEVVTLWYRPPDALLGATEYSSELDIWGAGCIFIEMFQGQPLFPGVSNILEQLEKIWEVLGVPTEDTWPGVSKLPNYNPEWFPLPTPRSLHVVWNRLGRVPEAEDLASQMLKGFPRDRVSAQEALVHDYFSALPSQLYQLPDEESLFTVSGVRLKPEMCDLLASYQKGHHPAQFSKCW
Sequence of Vascular endothelial growth factor receptor 2 (Homo sapiens) (P35968 whole entry): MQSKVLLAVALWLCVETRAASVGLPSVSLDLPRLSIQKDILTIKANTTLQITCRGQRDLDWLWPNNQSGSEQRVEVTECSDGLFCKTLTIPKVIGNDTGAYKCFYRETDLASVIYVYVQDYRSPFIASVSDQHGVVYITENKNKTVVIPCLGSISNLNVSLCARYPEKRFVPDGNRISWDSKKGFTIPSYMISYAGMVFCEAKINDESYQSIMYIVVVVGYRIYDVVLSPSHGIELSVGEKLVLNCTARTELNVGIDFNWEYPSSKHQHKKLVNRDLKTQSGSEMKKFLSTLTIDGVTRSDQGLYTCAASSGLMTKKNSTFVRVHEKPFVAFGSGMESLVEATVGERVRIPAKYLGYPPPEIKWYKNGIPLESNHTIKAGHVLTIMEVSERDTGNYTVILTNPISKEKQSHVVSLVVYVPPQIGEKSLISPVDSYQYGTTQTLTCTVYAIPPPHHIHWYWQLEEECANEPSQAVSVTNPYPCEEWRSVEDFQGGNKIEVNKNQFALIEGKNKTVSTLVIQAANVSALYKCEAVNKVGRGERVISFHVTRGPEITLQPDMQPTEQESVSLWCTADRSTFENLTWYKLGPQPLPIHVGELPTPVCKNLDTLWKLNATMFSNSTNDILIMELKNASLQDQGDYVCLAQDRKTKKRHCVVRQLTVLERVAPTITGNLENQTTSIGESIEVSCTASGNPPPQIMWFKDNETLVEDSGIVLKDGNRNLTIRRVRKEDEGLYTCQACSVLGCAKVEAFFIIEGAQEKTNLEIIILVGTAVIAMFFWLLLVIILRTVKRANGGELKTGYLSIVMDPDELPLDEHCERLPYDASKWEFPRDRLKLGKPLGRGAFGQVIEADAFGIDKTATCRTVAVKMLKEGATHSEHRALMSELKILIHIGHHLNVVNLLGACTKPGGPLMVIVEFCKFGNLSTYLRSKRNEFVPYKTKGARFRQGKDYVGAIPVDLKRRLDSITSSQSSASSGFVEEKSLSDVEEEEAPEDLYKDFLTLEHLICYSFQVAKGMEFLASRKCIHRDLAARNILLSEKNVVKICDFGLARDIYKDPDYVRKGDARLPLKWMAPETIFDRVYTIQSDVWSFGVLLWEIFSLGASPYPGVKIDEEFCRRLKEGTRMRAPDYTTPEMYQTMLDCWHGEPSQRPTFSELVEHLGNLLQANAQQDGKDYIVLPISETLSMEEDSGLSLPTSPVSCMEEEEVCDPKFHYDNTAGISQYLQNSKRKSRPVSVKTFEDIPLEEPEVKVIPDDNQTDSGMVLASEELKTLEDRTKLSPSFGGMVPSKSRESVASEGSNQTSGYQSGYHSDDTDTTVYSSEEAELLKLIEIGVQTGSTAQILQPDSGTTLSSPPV
Sequence of D(3) dopamine receptor (Homo sapiens) (P35462 whole entry): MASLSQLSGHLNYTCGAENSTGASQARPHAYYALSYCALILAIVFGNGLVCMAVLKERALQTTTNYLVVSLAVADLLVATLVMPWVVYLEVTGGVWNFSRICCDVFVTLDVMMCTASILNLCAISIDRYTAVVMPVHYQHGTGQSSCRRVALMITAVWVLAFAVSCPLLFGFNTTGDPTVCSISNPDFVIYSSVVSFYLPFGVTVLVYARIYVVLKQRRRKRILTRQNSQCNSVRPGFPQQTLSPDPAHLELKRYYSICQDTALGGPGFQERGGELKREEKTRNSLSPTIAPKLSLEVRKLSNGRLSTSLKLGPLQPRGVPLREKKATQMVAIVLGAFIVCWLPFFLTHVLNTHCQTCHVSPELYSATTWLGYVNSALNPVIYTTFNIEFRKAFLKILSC
Sequence of SNF-related serine/threonine-protein kinase (Homo sapiens) (Q9NRH2 whole entry): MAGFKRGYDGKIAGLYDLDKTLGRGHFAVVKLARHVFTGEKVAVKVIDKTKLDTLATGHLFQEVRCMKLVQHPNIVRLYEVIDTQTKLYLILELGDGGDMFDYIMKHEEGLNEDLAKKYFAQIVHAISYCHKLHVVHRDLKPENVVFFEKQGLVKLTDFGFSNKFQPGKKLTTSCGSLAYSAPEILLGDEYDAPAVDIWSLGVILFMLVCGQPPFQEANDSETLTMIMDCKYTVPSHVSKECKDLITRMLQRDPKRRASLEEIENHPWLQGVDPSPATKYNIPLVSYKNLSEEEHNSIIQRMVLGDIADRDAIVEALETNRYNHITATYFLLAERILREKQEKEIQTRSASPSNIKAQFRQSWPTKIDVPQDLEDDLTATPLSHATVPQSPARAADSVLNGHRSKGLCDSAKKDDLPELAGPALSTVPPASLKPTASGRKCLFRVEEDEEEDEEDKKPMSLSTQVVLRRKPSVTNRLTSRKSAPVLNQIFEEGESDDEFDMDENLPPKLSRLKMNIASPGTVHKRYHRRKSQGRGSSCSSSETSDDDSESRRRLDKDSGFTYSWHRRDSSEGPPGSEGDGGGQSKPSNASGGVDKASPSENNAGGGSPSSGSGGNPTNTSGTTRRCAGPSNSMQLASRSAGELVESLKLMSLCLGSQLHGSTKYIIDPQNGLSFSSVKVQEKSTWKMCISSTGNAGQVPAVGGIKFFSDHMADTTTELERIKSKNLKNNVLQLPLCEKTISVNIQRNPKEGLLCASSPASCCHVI
Sequence of Sigma non-opioid intracellular receptor 1 (Homo sapiens) (Q99720 whole entry): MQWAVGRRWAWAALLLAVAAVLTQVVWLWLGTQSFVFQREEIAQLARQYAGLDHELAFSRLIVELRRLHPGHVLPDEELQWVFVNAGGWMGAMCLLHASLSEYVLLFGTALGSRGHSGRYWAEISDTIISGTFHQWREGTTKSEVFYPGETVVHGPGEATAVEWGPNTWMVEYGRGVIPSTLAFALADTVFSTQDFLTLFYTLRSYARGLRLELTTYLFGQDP

Cc1c(NC(=O)c2cc(C(N)=O)nc3cc(F)ccc23)c(C(F)(F)F)nn1Cc1ccc(C(C)(C)C)cc1 [BAY-588]
inactive: residual activity [1] 94% | residual activity [2] 100% | residual activity [3] 100% | residual activity [4] 100% | residual activity [5] 100% | residual activity [6] 100% | residual activity [7] 100% | residual activity [8] 95% | residual activity [9] 91% | residual activity [10] 100% | residual activity [11] 100% | residual activity [12] 79% | residual activity [13] 87% | residual activity [14] 100% | residual activity [15] 76% | residual activity [16] 93% | residual activity [17] 100% | residual activity [18] 100% | residual activity [19] 100% | residual activity [20] 99% | inhibition [21] 6.28% | residual activity [22] 100% | residual activity [23] 100% | residual activity [24] 93% | residual activity [25] 100% | residual activity [26] 94% | residual activity [27] 83% | residual activity [28] 96% | residual activity [29] 85% | residual activity [30] 100% | inhibition [31] -3.13% | residual activity [32] 86% | residual activity [33] 97% | inhibition [34] 11.9% | residual activity [35] 100% | residual activity [36] 76% | residual activity [37] 100% | residual activity [38] 76% | residual activity [39] 86% | residual activity [40] 100% | residual activity [41] 100% | residual activity [42] 97% | residual activity [43] 92% | residual activity [44] 100% | residual activity [45] 90%

Cc1c(NC(=O)c2cc(C(N)=O)nc3cc(F)ccc23)c(C(F)(F)F)nn1Cc1ccc(C#N)cc1 [BAY-876]
inactive: residual activity [1] 84% | residual activity [2] 100% | residual activity [3] 96% | residual activity [4] 75% | residual activity [5] 67% | residual activity [6] 81% | residual activity [7] 100% | residual activity [8] 78% | residual activity [9] 80% | residual activity [10] 75% | residual activity [11] 100% | residual activity [12] 88% | residual activity [13] 74% | residual activity [14] 80% | residual activity [15] 76% | residual activity [16] 90% | residual activity [17] 87% | residual activity [18] 83% | residual activity [19] 99% | residual activity [20] 88% | inhibition [21] -2.5% | residual activity [22] 100% | residual activity [23] 100% | residual activity [24] 66% | residual activity [25] 100% | residual activity [26] 92% | residual activity [27] 82% | residual activity [28] 96% | residual activity [29] 88% | residual activity [30] 94% | inhibition [31] 0.483% | residual activity [32] 100% | residual activity [33] 81% | inhibition [34] 1.46% | residual activity [35] 92% | residual activity [36] 84% | residual activity [37] 78% | residual activity [38] 89% | residual activity [39] 81% | residual activity [40] 81% | residual activity [41] 93% | residual activity [42] 65% | residual activity [43] 99% | residual activity [44] 66% | residual activity [45] 100%

Source: ChEMBL document CHEMBL4507267 (2021)
